Experimental data: patent US20260092043A1, “NOVEL BENZOXAZOLE DERIVATIVE COMPRISING 4-AMINO-BUTANAMIDE AND USE THEREOF” (EWHA UNIVERSITY - INDUSTRY COLLABORATION FOUNDATION, priority 2022, published 2026)
Where two headings read alike, the source gives them in different places.

Assays:
IL-6 mRNA expression = experiment: Inhibition of IL-6 mRNA expression in LPS-treated HaCaT cells (real-time PCR); assay type: cell-based, Human; settings: for mRNA Expression (%) (10 μM) IL-6: HaCaT cells, 10 μM compound pretreatment then LPS, LPS alone set to 100%; for IC50: Homo sapiens, HaCaT
Procedure: (§1) Human keratinocytes HaCaT or alpha mouse liver 12 (AML-12) cells were obtained from Cell Lines Service GmbH (Eppelheim, Germany). The cells were cultured in Dulbecco's modified Eagle's medium (DMEM, HyClone) supplemented with 10% fetal bovine serum (HyClone) (HaCaT cells) and 1% penicillin/streptomycin (HyClone) and maintained at 37° C. in a humidified atmosphere containing 5% CO2. AML-12 cells were pretreated with compounds at a concentration of 10 μM 1 hour before LPS treatment and then treated with LPS (100 ng/mL) for 24 hours.
(§2) Total RNA was isolated from tissues using TRIzol reagent (Invitrogen), and reverse transcription (RT) and real-time PCR analysis were performed using the ABI PRISM 7700 system (PE Biosystems). Data were normalized to the amount of GAPDH mRNA.
(§3) 13 novel synthetic compounds (Compounds 5a to 5m) and 3 synthetic intermediates (Compounds 4d, 4e, and 41) were screened by measuring the mRNA expression levels of IL-6 and IL-1β. Human keratinocyte HaCaT cell lines were used to evaluate the mRNA expression inhibition effect. […] Each compound was administered at a concentration of 10 μM.
Dose-response studies were performed for the above five compounds at different concentrations to obtain IC50 values (μM) (FIG. 1 and Table 3).

IL-1β mRNA expression = experiment: Inhibition of IL-1β mRNA expression in LPS-treated HaCaT cells (real-time PCR); assay type: cell-based, Human; settings: 10 μM compound pretreatment then LPS, LPS alone set to 100%
Procedure: as §1, §2, §3

pY-STAT3 = experiment: Western blotting of pY-STAT3 in LPS-treated AML-12 cells; assay type: cell-based, mouse; settings: 10 μM compound, FIG. 2
Procedure: as §1
(§4) Protein levels in cells and mouse tissues were determined by immunoblot analysis. […] After quantifying the protein concentrations in the lysates (supernatant) using the Bradford assay (Bio-Rad, CA, USA), the lysates were mixed with a sample buffer (62.5 mM Tris-HCl pH 6.8, 10% glycerol, 2% sodium dodecyl sulfate, 0.0125% bromophenol blue, 2.5% β-mercaptoethanol) and heated at 95° C. for 5 minutes. […] Immune complexes were detected with horseradish peroxidase (HRP)-conjugated secondary antibodies (Bio-Rad, Hercules, CA, USA) and enhanced with chemiluminescence reagents (Ab Frontier, Daejeon, Korea) using IQ800 (GE Healthcare, Sweden). The abundance of the target protein was quantified by densitometric analysis of the immunoblot. […]

p-IκBα = experiment: Western blotting of p-IκBα in LPS-treated AML-12 cells; assay type: cell-based, mouse; settings: 10 μM compound, FIG. 2
Procedure: as §1, §4

p-NF-κB p65 = experiment: Western blotting of p-NF-κB p65 in LPS-treated AML-12 cells; assay type: cell-based, mouse; settings: 10 μM compound, FIG. 2
Procedure: as §1, §4

IL-1β mRNA = IL-1β mRNA level in liver tissue of LPS-injected mice; assay type: in vivo, mice (C57BL/6J); settings: 10 mg/kg in olive oil 1 hour before LPS (1 mg/kg i.p., 6 h)
Procedure: (§5) 10-week-old male C57BL/6J mice (Jackson Laboratory, Bar Harbor, ME, USA) were used in the experiment. All animal experiments were performed in accordance with the protocol approved by the Institutional Animal Care and Use Committee of Ewha Womans University (EWHA IACUC 19-001). The mice were housed in a temperature-controlled room (20 to 22° C. with a 12 h light:12 h dark cycle). The compounds prepared according to Examples 1 to 10 were diluted with olive oil (vehicle, Sigma) to a volume of 200 μL (10 mg/kg) and administered to mice (male C57BL/6J, […]) 1 hour before LPS administration. LPS (1 mg/kg, 6 h) was resuspended in saline and injected intraperitoneally at a dose of 1 mg/kg of body weight. At the end of the experiment, the mice were sacrificed (tribromoethanol, 250 mg/kg, i.p.) and the liver and blood were collected for further analysis.
as §2
(§6) 2 compounds (Compounds 4d and 5f) were selected for in vivo assay. […] In order to evaluate the anti-inflammatory activity in mice, the mRNA expressions of IL-1β, IL-6, and TNF-α were measured, and the results are shown in FIG. 3.

IL-6 mRNA = IL-6 mRNA level in liver tissue of LPS-injected mice; assay type: in vivo, mice (C57BL/6J); settings: 10 mg/kg in olive oil 1 hour before LPS (1 mg/kg i.p., 6 h)
Procedure: as §5, §2, §6

TNF-α mRNA = TNF-α mRNA level in liver tissue of LPS-injected mice; assay type: in vivo, mice (C57BL/6J); settings: 10 mg/kg in olive oil 1 hour before LPS (1 mg/kg i.p., 6 h)
Procedure: as §5, §2, §6

[1] = system: LPS-induced liver inflammatory disease model; experiment: Liver histology (H&E) and F4/80 immunohistochemistry in LPS-induced liver inflammatory disease model; assay type: in vivo, mice (C57BL/6J); settings: mice, compared to LPS alone; for F4/80-positive cells in liver: immunohistochemistry
Procedure: as §5
First, 4% paraformaldehyde-fixed liver tissues were embedded in paraffin according to standard procedures. 4-micron-thick liver tissue sections were prepared, and immunohistochemical staining was performed according to the manufacturer's instructions. 4-micron-thick liver tissue sections were stained with hematoxylin and eosin (H&E) or subjected to immunohistochemical characterization using an antibody specific for F4/80 (Abcam, Cambridge, MA, UK). All steps were performed at room temperature, and the tissues were washed with tap water after each step. The sections were photographed using a Zeiss microscope (Carl Ziess, Thronwood, NY, USA) equipped with AxioCam software.
As a result of LPS administration, macrophage infiltration into the liver tissue was observed. When Compounds 5f and 4d were administered, the inflammatory response was improved compared to when LPS was administered alone.
In order to characterize the phenotype of macrophages accumulated in LPS-induced inflammation, immunohistochemical studies were performed using antibodies against F4/80 as a marker of mature macrophages (FIG. 4b). When LPS was administered alone to induce an inflammatory response, hepatic macrophage accumulation increased. As a result, there was a marked elevation of the number of F4/80-positive cells.

[2] = Plasma ALT and AST levels in LPS-injected mice; assay type: in vivo, mice (C57BL/6J); settings: for plasma alanine aminotransferase (ALT) level / plasma aspartate transaminase (AST) level: compared to LPS alone; for hepatotoxicity in vivo: judged by ALT and AST levels
Procedure: as §5
The concentrations of plasma alanine aminotransferase (ALT) and aspartate transaminase (AST) were determined using an EnzyChrom™ assay kit (BioAssay Systems, Hayward, CA, USA) according to the manufacturer's recommendations.
Consistent with the altered histological characteristics, plasma alanine aminotransferase (ALT) and aspartate transaminase (AST) levels increased after LPS administration (FIGS. 4c and 4d), and when Compounds 5f and 4d were administered, ALT and AST levels decreased.

[3] = dose-response of normalized IL-6 mRNA expression (FIG. 1), read-out: IC50
[4] = log of IC50, dose-response of normalized IL-6 mRNA expression (FIG. 1), read-out: Log (converted)

Structure (SMILES) | mRNA Expression (%) (10 μM) IL-6 (IL-6 mRNA expression) | IC50 (IL-6 mRNA expression; [3]) [nM] | IC50 (IL-6 mRNA expression; [4]) [nM] | mRNA Expression (%) (10 μM) IL-1β (IL-1β mRNA expression) | expression level of pY-STAT3 (pY-STAT3) | expression level of p-IκBα (p-IκBα) | expression level of p-NF-κB p65 (p-NF-κB p65) | mRNA level of IL-1β in vivo (IL-1β mRNA) | mRNA level of IL-6 in vivo (IL-6 mRNA) | mRNA level of TNF-α in vivo (TNF-α mRNA) | inflammatory response in liver histology (H&E) [1] | F4/80-positive cells in liver [1] | plasma alanine aminotransferase (ALT) level [2] | plasma aspartate transaminase (AST) level [2] | hepatotoxicity in vivo [2]
Cc1ccc2oc(Nc3ccc(NC(=O)CCCNC(=O)OC(C)(C)C)cc3)nc2c1 [Compound 4d, tert-butyl 4-(4-(5-methylbenzo[d]oxazol-2-ylamino)phenylamino)-4-oxobutylcarbamate] | 2.4 | 0.0604 | 0.0603 | 0.03 | significantly down-regulated | significantly down-regulated | significantly down-regulated | significantly reduced | significantly reduced | significantly reduced | improved | significant decrease | decreased | decreased | without hepatotoxicity
Cc1cccc2oc(Nc3ccc(NC(=O)CCCN)cc3)nc12 [Compound 5c, 4-amino-N-(4-(4-methylbenzo[d]oxazol-2-ylamino)phenyl)butanamide] | 2.08 | 1640 | 1660 | 0.79 | – | – | – | – | – | – | – | – | – | – | –
Cc1ccc2oc(Nc3ccc(NC(=O)CCCN)cc3)nc2c1 [Compound 5d, 4-amino-N-(4-(5-methylbenzo[d]oxazol-2-ylamino)phenyl)butanamide] | 3.39 | 32.7 | 33.1 | 0.03 | – | – | – | – | – | – | – | – | – | – | –
CC(C)(C)c1ccc2oc(Nc3ccc(NC(=O)CCCN)cc3)nc2c1 [Compound 5f, 4-amino-N-(4-(5-tert-butylbenzo[d]oxazol-2-ylamino)phenyl)butanamide] | 3.26 | 0.444 | 0.447 | 2.83 | significantly down-regulated | significantly down-regulated | significantly down-regulated | significantly reduced | significantly reduced | significantly reduced | improved | significant decrease | decreased | decreased | without hepatotoxicity
COc1cc(NC(=O)CCCN)ccc1Nc1nc2cc(C(C)(C)C)ccc2o1 [Compound 5m, 4-amino-N-(4-(5-tert-butylbenzo[d]oxazol-2-ylamino)-3-methoxyphenyl)butanamide] | 4.07 | 0.199 | 0.2 | 0.49 | – | – | – | – | – | – | – | – | – | – | –
